Source: patent US8129527B2, “Analogs of dehydrophenylahistins and their therapeutic use” (Nereus Pharmacuticals, Inc., priority 2006, dated 2012)
Read-outs that look alike come from different tables or passages of the source.

Columns and labels:
[1] = test system: PC-3 prostatic adenocarcinoma cells; assay: Tumor cytotoxicity assay, resazurin fluorescence, 48 h (Example 6); type: cell-based, human; details: read-out: EC50 (nM) PC-3
Method: 10× concentrated serial dilutions of the two compounds were prepared in appropriate culture medium for final concentrations ranging from 2.0×10^−5 M to 2.0×10^−10 M. Ten μl volumes of the 10× serial dilutions were added to the test wells in triplicate and the plates returned to the incubator for 48 hours.
Following 48 hours of drug exposure 10 μl of 0.2 mg/ml resazurin (obtained from Sigma-Aldrich Chemical Co.) in Mg^2+, Ca^2+ free PBS was added to each well and the plates were returned to the incubator for 3-4 hours. […] Resazurin dye without cells was used to determine the background, which was subtracted from the data for all experimental wells. The data were analyzed using Prism software (GraphPad Software).
PC-3, a human prostate adenocarcinoma, was maintained in F12K complete medium (F12K medium supplemented with 10% FBS; 2 mM Glutamine; 1% HEPES; and Pen/Strep at 100 IU/ml and 100 µg/ml, respectively).

[2] = test system: bovine brain microtubule protein; assay: Tubulin polymerization assay, turbidity (Example 21); type: biochemical; details: 5 μM in 1% DMSO
Method: Polymerization of bovine brain microtubule protein (Cytoskeleton, Inc., Denver, Colo.) was monitored by an increase in turbidity at 37° C. in microtubule buffer (80 mM PIPES, pH 6.8, 1 mM MgCl2, 1 mM EGTA, 1 mM GTP, 10% glycerol). […] Turbidity was measured as an increase in optical density at 340 nm with a thermo-controlled spectrophotometer (model 680XR microplate Reader™, Bio-Rad Laboratories).

[3] = target: JNK3 (rat) (Rattus norvegicus, UniProt P49187); details: ATP 10 μM
JNK3 (rat), sequence (P49187 whole entry): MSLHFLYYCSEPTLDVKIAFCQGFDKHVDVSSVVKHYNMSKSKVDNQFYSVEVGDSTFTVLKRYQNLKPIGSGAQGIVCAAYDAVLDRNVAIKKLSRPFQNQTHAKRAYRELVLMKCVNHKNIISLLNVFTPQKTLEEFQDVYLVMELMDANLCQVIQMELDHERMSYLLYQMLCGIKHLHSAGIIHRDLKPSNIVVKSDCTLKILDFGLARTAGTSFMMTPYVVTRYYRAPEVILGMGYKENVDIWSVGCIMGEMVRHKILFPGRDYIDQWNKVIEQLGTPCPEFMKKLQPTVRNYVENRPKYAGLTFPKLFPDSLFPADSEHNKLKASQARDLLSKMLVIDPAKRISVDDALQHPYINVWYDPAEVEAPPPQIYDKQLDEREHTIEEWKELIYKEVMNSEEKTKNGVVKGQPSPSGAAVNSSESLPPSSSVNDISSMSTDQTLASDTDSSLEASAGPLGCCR

[4] = test system: HT-29 human colon tumor; assay: HT-29 Human Colon Tumor Xenograft Model; type: in vivo
Procedure, shortened: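 Nude mice bearing s.c. trocar-implanted HT-29 fragments were grouped at 5 mm×5 mm tumours and dosed i.p.; in combinations, reference chemotherapy was given 15-30 min before compound. Caliper measurements twice weekly were converted to tumour weight as (W^2×L)/2, with study end when control tumours averaged 1000 mg.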

[5] = test system: Jurkat cells; assay: cells; type: cell-based; details: Jurkat cells
[6] = test system: MCF-7 human breast tumor; assay: MCF-7 Human Breast Tumor Xenograft Model; type: in vivo, nude mice; details: in combination with taxotere
Procedure, shortened: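 Female nu/nu mice (~20 g, 5–6 wk) given 21-day estrogen pellets (0.25 mg) s.c. 24 h before s.c. MCF-7 tumor fragment implantation; 9–10 mice/group. Compounds dosed i.p. (qdx5 Days 1–5, or Days 1, 2, 3, 4, 7); taxotere i.v. (Days 1, 3, 5 or 1, 3, 7), given 15–30 min before compound in combinations.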

[7] = test system: PARP in Jurkat cells; assay: Cleavage of poly(ADP-ribose)polymerase (PARP), western blotting; type: cell-based, human; details: 100 nM, 10 hours after exposure
Excerpt: In order to assess the ability of these compounds to induce apoptosis in Jurkat cells, cleavage of poly(ADP-ribose)polymerase (PARP) was monitored. […] The cleavage of PARP generates a stable 89 kDa product, and this process can be easily monitored by western blotting.

[8] = target: panel of 60 different kinases; assay: Broad kinase screen, primary screen; type: biochemical; details: 10 μM compound, ATP 10 μM, 60 kinases
[9] = test system: MES-SA (Taxol Sensitive) human uterine sarcoma; assay: Drug resistant cell line pair, cytotoxicity (Example 10B); type: cell-based; details: Homo sapiens, MES-SA, CsA Pretreat, Studies II-III in separate lines
Excerpt: (§1) 1) Human Uterine Sarcoma Tumor Cell Line Pair: MES-SA (Taxol Sensitive) and MES-SA/Dx5 (Taxol Resistant).

[10] = test system: MES-SA/Dx5 (Taxol Resistant) human uterine sarcoma; assay: as above; type: cell-based; details: Homo sapiens, MES-SA/Dx5, MES-SA/DX5 Resistant, CsA Pretreat; Studies II-III in separate lines
Excerpt: as §1

[11] = test system: Aspergillus fumigatus; assay: Antifungal susceptibility testing, broth dilution (MIC/MFC); type: cell-based
Procedure, shortened: (§2)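 Tested against two isolates per species (one for C. glabrata). After MIC, fungicidal concentration determined by plating 0.1 μl from MIC and each higher concentration.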

[12] = test system: Candida glabrata; assay: as above; type: cell-based; details: Nakaseomyces glabratus
Procedure, shortened: as §2

[13] = test system: Candida albicans; assay: as above; type: cell-based
Procedure, shortened: as §2

[14] = test system: Trichophyton rubrum; assay: as above; type: cell-based; details: Trichophyton species
Procedure, shortened: as §2

[15] = test system: HuVEC; assay: Action on microtubule function, α-tubulin staining; details: 2 μM, thirty minutes exposure

CC(C)(C)c1[nH]cnc1/C=c1\[nH]c(=O)/c(=C/c2ccccc2)[nH]c1=O [KPU-2, tBu-dehydro-PLH]
EC50 ([1]; Table 2): 1 nM
EC50 ([1]; Table 3): 1 nM
tubulin polymerization [2]: inhibit tubulin polymerization
IC50 [3]: 6.8 µM
Comments (combination with CPT-11) ([4]; NPI compound + CPT-11 100 ip qwx3, study and dose as in the line): Synergy
NPI-Compound Result TGI % ([4]; Study 2139, monotherapy 7.5 mg/kg ip q3dx5): No Effect
NPI-Compound Result TGI % ([4]; Study 2164, monotherapy 7.5 mg/kg ip q3dx5): No Effect
NPI-Compound Result TGI % ([4]; Study 2164, monotherapy 7.5 mg/kg ip qdx5): No Effect
NPI-Compound Result TGI % ([4]; Study 2288, monotherapy 10→7.5 mg/kg ip q3dx5): No Effect
Exceed NCI Criterion (TGI ≧ 58%) ([4]; which treatment group exceeds the criterion, NPI compound, CPT-11 100 ip qwx3 or combination, study and dose as in the line): Combination
Cytotoxicity Efficacy % Cell Death [5]: 94%
effect on estimated tumor growth [6]: appeared to be the most effective
cleavage of PARP [7]: induced cleavage of PARP
kinases inhibited in the primary screen [8]: Four kinases were inhibited by greater than 50%
IC50 [9]: 0.0274 µM
IC50 [10]: 0.0378 µM
MIC ([11]; A. fumigatus isolate #2): >16 mg/L
MIC ([11]; Aspergillus fumigatus): > 16 mg/L
MIC [12]: > 32 mg/L
MIC ([13]; C. albicans 10231): >32 mg/L
MIC ([13]; Candida albicans): > 32 mg/L
antifungal potency compared with griseofulvin [14]: equivalent in potency or in some cases more potent than griseofulvin
microtubule depolymerization in HuVEC cells [15]: induced microtubule depolymerization
